Laboratory results taken from EP1799816B1, “NOVEL LACCASE ENZYME AND USE THEREOF” (AB Enzymes Oy, priority 2004, dated 2006).
“And” between values parts separate entries of the source, which are not always exact repeats. Identical values can stand only once. Like-named read-outs stand apart in the source and are kept apart here. One block for each molecule: values may come before it.

Key:
[1] = system: recombinant Thielavia arenaria TaLcc1 laccase (rTaLcc1); type: biochemical
Experimental: Table 2. Inhibition of the Thielavia wild type laccase.
The inhibition effect of different compounds on the activity of the recombinant TaLcc1 laccase was determined as described in Example 2. Table 7. Inhibition of the recombinant Thielavia arenaria TaLcc1 laccase (rTaLcc1) activity by various compounds.

[2] = system: Thielavia wild type laccase
[3] = Sodium hypochlorite bleaching of different types of denim, Wascator, colour of face side of denim; conditions: 25 ml/l 10 % NaOCl, 15 min, 40°C, pH 11.5 - 11.9
Experimental: Different types of demin were treated with a TaLcc1 laccase product from Trichoderma strain RF5597 and DeniLite II Base from Novozymes and the results obtained were compared to hypochlorite bleaching. All together 27 pieces of different kinds of denim (whole jeans), which had been previously washed with cellulase after desizing to different abrasion levels or had been only desized with ECOSTONE® A200 (60°C, 10 min), were collected for the test (Table 15). The jeans were made of Indigo dyed denim, except the English jeans contained Indigo dyed denim with sulphur bottom. Jeans were cut in such a way that pieces from the same pair of jeans could be used for all tests.
The sodium hypochlorite bleaching was performed with Electrolux's Wascator FOM 71 CLS washer extractor using denim obtained from the same jeans as in laccase treatments under conditions described in Table 17. Sodium hydroxide was added before adding 25 ml/l of 10 % sodium hypochlorite solution (Klorite Forte, Farmos Oy) to keep the pH above 10.5 during the treatment. After draining the bleach liquor, there was one 2 minutes rinsing step with the liquor ratio of 1:20 before dechlorinating with sodium thiosulphate. After dechlorinating the denim samples were rinsed 3 times for 2 minutes with the liquor ratio of 1:20. The fabrics were dried in a tumbler. Table 17. The process parameters used in the sodium hypochlorite bleaching and dechlorinating.
The bleaching effect was evaluated by measuring the colour as reflectance values as in Example 7. […] Different looks were obtained depending on the type of the denim and cellulase treatment used. "Sulphur-bottom type" denim was the most difficult to bleach. Table 18. Colour measurements of the face side of denim treated with TaLcc1 laccase preparation (RF5597). L* indicates lightness, -b* is the blue direction, +b* is the yellow direction.

[4] = substrate: COc1cc(C=NN=Cc2cc(OC)c(O)c(OC)c2)cc(OC)c1O; assay: Kinetic parameters (Km, kcat, kcat/Km) on laccase substrates; type: biochemical, Melanocarpus albomyces; conditions: other: substrate Syringaldazin, 25°C, buffer unclear, comparison enzyme
Experimental: (§1) On syringaldazin and DMP 40 mM MES buffer, pH 6 and 25 mM succinate bluffer, All activity assays were carried out at 25°C. Kinetic parameters were estimated by a nonlinear regression curve fit. The values were compared to those of Melanocarpus albomyces MaL, laccase.

[5] = substrate: COc1cccc(OC)c1O; assay: as above; type: biochemical, Melanocarpus albomyces; conditions: other: substrate DMP, 25°C, buffer unclear, comparison enzyme
Experimental: as §1

[6] = sample B1, Basic Jeans, Ecostone P1250
[7] = sample E1, English jeans (sulphur bottom), desized only
[8] = sample E2, English jeans (sulphur bottom), Ecostone NP2000
[9] = sample E3, English jeans (sulphur bottom), Rocksoft NCE-EA
[10] = sample E4, English jeans (sulphur bottom), Rocksoft NCE-2X
[11] = sample E5, English jeans (sulphur bottom), Ecostone L900
[12] = sample E6, English jeans (sulphur bottom), Ecostone L900
[13] = sample E7, English jeans (sulphur bottom), Ecostone L900
[14] = sample L1, Lee Cooper jeans, desized only
[15] = sample L2, Lee Cooper jeans, Ecostone L
[16] = sample L3, Lee Cooper jeans, Biotouch C29
[17] = sample L4, Lee Cooper jeans, Ecostone L
[18] = sample L5, Lee Cooper jeans, Indiage Max L
[19] = sample L6, Lee Cooper jeans, Indiage Super L
[20] = sample L7, Lee Cooper jeans, Ecostone CXP500 Exper.
[21] = sample L8, Lee Cooper jeans, Ecostone CXP experimental
[22] = sample L9, Lee Cooper jeans, Ecostone N400
[23] = sample T1, Tincan jeans, desized only
[24] = sample T2, Tincan jeans, Ecostone N400
[25] = sample T3, Tincan jeans, Ecostone L300
[26] = sample T4, Tincan jeans, Denimax 991S
[27] = sample W1, Warric jeans, desized only
[28] = sample W2, Warric jeans, Ecostone P4500
[29] = sample W3, Warric jeans, Indiage Max G
[30] = sample W4, Warric jeans, Ecostone NP2000
[31] = sample W5, Warric jeans, Ecostone L900
[32] = sample W6, Warric jeans, Denabraide MBL 65 E

Inhibition (%) of laccase rTaLcc1 ([1]; inhibitor 10 mM, ABTS as substrate): 5%
Inhibition(%) wt TaLcc1 ([2]; inhibitor 10 mM, 2 mM ABTS, 25 mM succinate buffer pH 4.5): 0%
Molecule: O=C(O)CN(CCN(CC(=O)O)CC(=O)O)CC(=O)O [EDTA]

Molecule: [Cl-].[Na+] [NaCl]
Inhibition (%) of laccase rTaLcc1 [1]: 0%
Inhibition(%) wt TaLcc1 ([2]; pH 4.5): 35% and 42%

Molecule: [N-]=[N+]=[N-].[Na+] [NaN3]
Inhibition (%) of laccase rTaLcc1 [1]: 95%

After laccase Treatment L* [3, 6]: 40.62
After laccase Treatment b* [3, 6]: -17.37
After laccase Treatment L* [3, 7]: 21.91
After laccase Treatment b* [3, 7]: -15.03
After laccase Treatment L* [3, 8]: 33.30
After laccase Treatment b* [3, 8]: -16.43
After laccase Treatment L* [3, 9]: 34.13
After laccase Treatment b* [3, 9]: -16.73
After laccase Treatment L* [3, 10]: 35.83
After laccase Treatment b* [3, 10]: -16.86
After laccase Treatment L* [3, 11]: 33.85
After laccase Treatment b* [3, 11]: -16.48
After laccase Treatment L* [3, 12]: 30.61
After laccase Treatment b* [3, 12]: -16.65
After laccase Treatment L* [3, 13]: 32.36
After laccase Treatment b* [3, 13]: -16.75
After laccase Treatment L* [3, 14]: 31.23
After laccase Treatment b* [3, 14]: -20.83
After laccase Treatment L* [3, 15]: 44.11
After laccase Treatment b* [3, 15]: -18.60
After laccase Treatment L* [3, 16]: 39.71
After laccase Treatment b* [3, 16]: -19.67
After laccase Treatment L* [3, 17]: 40.63
After laccase Treatment b* [3, 17]: -19.25
After laccase Treatment L* [3, 18]: 39.47
After laccase Treatment b* [3, 18]: -19.48
After laccase Treatment L* [3, 19]: 41.50
After laccase Treatment b* [3, 19]: -18.68
After laccase Treatment L* [3, 20]: 37.91
After laccase Treatment b* [3, 20]: -19.85
After laccase Treatment L* [3, 21]: 40.74
After laccase Treatment b* [3, 21]: -19.12
After laccase Treatment L* [3, 22]: 40.82
After laccase Treatment b* [3, 22]: -18.82
After laccase Treatment L* [3, 23]: 33.97
After laccase Treatment b* [3, 23]: -17.95
After laccase Treatment L* [3, 24]: 34.38
After laccase Treatment b* [3, 24]: -18.22
After laccase Treatment L* [3, 25]: 40.33
After laccase Treatment b* [3, 25]: -18.30
After laccase Treatment L* [3, 26]: 37.66
After laccase Treatment b* [3, 26]: -18.58
After laccase Treatment L* [3, 27]: 27.75
After laccase Treatment b* [3, 27]: -18.76
After laccase Treatment L* [3, 28]: 39.35
After laccase Treatment b* [3, 28]: -17.39
After laccase Treatment L* [3, 29]: 41.11
After laccase Treatment b* [3, 29]: -16.79
After laccase Treatment L* [3, 30]: 38.07
After laccase Treatment b* [3, 30]: -17.33
After laccase Treatment L* [3, 31]: 37.12
After laccase Treatment b* [3, 31]: -18.03
After laccase Treatment L* [3, 32]: 36.65
After laccase Treatment b* [3, 32]: -17.95
Molecule: OCl [sodium hypochlorite]
Increase of L* [3, 6]: 12.27
Increase of L* [3, 7]: 5.15
Increase of L* [3, 8]: 7.36
Increase of L* [3, 9]: 9.40
Increase of L* [3, 10]: 9.28
Increase of L* [3, 11]: 9.28
Increase of L* [3, 12]: 8.41
Increase of L* [3, 13]: 9.62
Increase of L* [3, 14]: 10.69
Increase of L* [3, 15]: 12.97
Increase of L* [3, 16]: 11.26
Increase of L* [3, 17]: 11.48
Increase of L* [3, 18]: 11.47
Increase of L* [3, 19]: 12.42
Increase of L* [3, 20]: 11.15
Increase of L* [3, 21]: 11.98
Increase of L* [3, 22]: 11.91
Increase of L* [3, 23]: 8.95
Increase of L* [3, 24]: 6.73
Increase of L* [3, 25]: 11.24
Increase of L* [3, 26]: 10.10
Increase of L* [3, 27]: 10.17
Increase of L* [3, 28]: 13.76
Increase of L* [3, 29]: 12.99
Increase of L* [3, 30]: 12.29
Increase of L* [3, 31]: 13.40
Increase of L* [3, 32]: 12.90

B1: Melanocarpus albomyces laccase MaL (Melanocarpus albomyces) (protein)
chain: EPTCNTPSNRACWSDGFDINTDYEVSTPDTGVTQSYVFNLTEVDNWMGPDGVVKEKVMLINGNIMGPNIVANWGDTVEVTVINNLVTNGTSIHWHGIHQKDTNLHDGANGVTECPIPPKGGQRTYRWRARQYGTSWYHSHFSAQYGNGVVGTIQINGPASLPYDIDLGVFPITDYYYRAADDLVHFTQNNAPPFSDNVLINGTAVNPNTGEGQYANVTLTPGKRHRLRILNTSTENHFQVSLVNHTMTVIAADMVPVNAMTVDSLFLAVGQRYDVVIDASRAPDNYWFNVTFGGQAACGGSLNPHPAAIFHYAGAPGGLPTDEGTPPVDHQCLDTLDVRPVVPRSVPVNSFVKRPDNTLPVALDLTGTPLFVWKVNGSDINVDWGKPIIDYILTGNTSYPVSDNIVQVDAVDQWTYWLIENDPEGPFSLPHPMHLHGHDFLVLGRSPDVPAASQQRFVFDPAVDLARLNGDNPPRRDTTMLPAGGWLLLAFRTDNPGAWLFHCHIAWHVSGGLSVDFLERPADLRQRISQEDEDDFNRVCDEWRAYWPTNPYPKIDSGL
Km [4]: 1.3 µM
kcat [4]: 78.5 s⁻¹
kcat/Km [4]: 6e+07 M⁻¹ s⁻¹
Km [5]: 5 µM
kcat [5]: 69.33 s⁻¹
kcat/Km [5]: 1.35e+07 M⁻¹ s⁻¹
